Laboratory results: patent publication US5011949A, “Ascorbic acid derivative” (Nippon Hypox Laboratories, Inc., priority 1989, dated 1991)

Assays:
[1] = Antioxidant action examined by using stable free radicals: reduction activity of DPPH (M. S. Blois method), absorbance at 517 nm; format: biochemical; conditions: 1 mM DPPH in ethanol, after 20 minutes, difference from solvent control (0.5% or less DMF), read-out: 50% radical eliminating concentration
Procedure: Test Example 1 (Antioxidant Action Examined by Using Stable Free Radicals)
Reduction activity of α,α-diphenyl-β-picrylhydrazyl (DPPH) which was a stable free radical was examined according to the M. S. Blois method (nature, vol. 181, page 1199, 1958) and used as an index to antioxidant action. Thus, specimens were added to 3 ml of a 1 mM DPPH solution in ethanol, and absorbance at a wavelength of 517 nm was measured using a spectrophotometer after 20 minutes. The difference in absorbance from the solvent control [0.5% or less of dimethylformamide (DMF)]was taken as the reduction activity.

[2] = Effects on formazan formation in the xanthine-xanthine oxidase-Nitrotetrazolium Blue system (superoxide anion radicals); format: biochemical; conditions: for Inhibition ratio (%) of formazan formation: pH 7.8, 30° C., 10 min; for inhibition of formazan formation (in words): from Table-4, 0.5 mM and 4 mM
Procedure: Test Example 2 (Effects on Formazan Formation in the Xanthine-xanthine Oxidase-Nitrotetrazolium Blue System)
Specimens were added to a 0.05 M phosphoric acid buffer solution (pH 7.8) containing xanthine, EDTA 2Na and Nitrotetrazolium Blue (NTB) so as to provide the respective final concentrations of 5×10^-5 M, 1×10^-4 M and 5×10^-4 M and warmed at 30° C. for 30 minutes. Xanthine oxidase (manufactured by Sigma Corp.) was added, and the resulting mixtures were warmed at 30° C. for 10 minutes to colorimetrically determine formazan formed by superoxide anion radicals. The inhibition ratio of formazan formation was determined from the results at concentrations of 0.5 mM and 4 mM of each specimen.

SMILES | IC50 [1] | other results
CCCCOC1=C(O)[C@@H]([C@@H]2COC(C)(C)O2)OC1=O [Compound 201] | 14 µM | Inhibition ratio (%) of formazan formation ([2]; 0.5 mM): 9.1%; Inhibition ratio (%) of formazan formation ([2]; 4 mM): 19.1%; inhibition of formazan formation (in words) [2]: remarkably inhibited formazan formation
CCOC(=O)CCCOC1=C(O)[C@@H]([C@@H]2COC(C)(C)O2)OC1=O [Compound 202] | 16 µM | –
CC1(C)OC[C@@H]([C@H]2OC(=O)C(OCCCC(=O)O)=C2O)O1 [Compound 203] | 28 µM | –
CCOC(=O)C(C)OC1=C(O)C(C2COC(C)(C)O2)OC1=O (stereo not shown) [Compound 204] | 25 µM | –
CCCCOC(=O)COC1=C(O)[C@@H]([C@@H]2COC(C)(C)O2)OC1=O [Compound 205] | 30 µM | –
CC(=O)COC1=C(O)[C@@H]([C@@H]2COC(C)(C)O2)OC1=O [Compound 206, L-5,6-O-isopropylidene-2-O-methylcarbomethylascorbic acid] | 14 µM | Inhibition ratio (%) of formazan formation ([2]; 0.5 mM): 17.8%; Inhibition ratio (%) of formazan formation ([2]; 4 mM): 55.5%; inhibition of formazan formation (in words) [2]: remarkably inhibited formazan formation
CCCCCCCCCCCCCCCCCCOC1=C(O)[C@@H]([C@@H](O)CO)OC1=O [Compound 301] | 28 µM | –
CCCCCCCCCCCCOC1=C(O)[C@@H]([C@@H](O)CO)OC1=O [Compound 302] | 26 µM | –
CCCCCCCCOC1=C(O)[C@@H]([C@@H](O)CO)OC1=O [Compound 303] | 26 µM | –
CCCCOC1=C(O)[C@@H]([C@@H](O)CO)OC1=O [Compound 304] | 17 µM | –
O=C1O[C@H]([C@@H](O)CO)C(O)=C1OCc1ccccc1 [Compound 305] | 29 µM | –
CCOC(=O)CCCOC1=C(O)[C@@H]([C@@H](O)CO)OC1=O [Compound 306] | 29 µM | –
O=C(O)CCCOC1=C(O)[C@@H]([C@@H](O)CO)OC1=O [Compound 307] | 33 µM | –
CCOC(=O)C(C)OC1=C(O)[C@@H]([C@@H](O)CO)OC1=O (stereo partly shown) [Compound 308] | 25 µM | –
CCCCOC(=O)COC1=C(O)[C@@H]([C@@H](O)CO)OC1=O [Compound 309] | 28 µM | –
CC(=O)COC1=C(O)[C@@H]([C@@H](O)CO)OC1=O [Compound 310, L-2-O-methylcarbomethylascorbic acid] | 17 µM | –
